The experiment has as its system CCRF-CEM. Put plainly: Growth inhibition of CCRF-CEM human leukemic lymphoblasts. It is filed as functional, cell-based.

Each structure is given as a SMILES string.

In general, IC50 refers to the concentration at which inhibition is half-maximal. The low end stands for higher potency, the high end for lower potency.

`CCC(Cc1cnc2nc(N)nc(N)c2n1)c1ccc(C(=O)N[C@@H](CCC(=O)O)C(=O)O)cc1` (some centres undefined) [EDATREXATE] showed a 50% inhibitory concentration (IC50) of 3.3 nM.
For `CCC(Cc1cnc2nc(N)nc(N)c2n1)(C(=O)OC)c1ccc(C(=O)NC(CCCNC(=O)c2ccccc2C(=O)O)C(=O)O)cc1` (centres undefined), half-maximal inhibition (IC50) was put at 54 nM.
`Nc1nc(N)c2nc(CNc3ccc(C(=O)NC(CCSCNC(=O)c4ccccc4C(=O)O)C(=O)O)cc3)cnc2n1` (centres undefined): the half-maximal inhibitory concentration (IC50) was 5 nM.
The result for `Nc1nc(N)c2nc(CNc3ccc(C(=O)NC(CCCNC(=O)c4cccc(C(=O)O)c4)C(=O)O)cc3)cnc2n1` (centres undefined) reads 7.5 nM.
With `CCC(Cc1cnc2nc(N)nc(N)c2n1)c1ccc(C(=O)NC(CCCNC(=O)c2ccccc2C(=O)O)C(=O)O)cc1` (centres undefined), it took 1.2 nM to reach half-maximal inhibition (IC50).
Then `Nc1nc(N)c2nc(CNc3ccc(C(=O)NC(CSCNC(=O)c4ccccc4C(=O)O)C(=O)O)cc3)cnc2n1` (centres undefined), with 4.4 nM; and `Nc1nc(N)c2nc(CNc3ccc(C(=O)NC(CCCNC(=O)c4ccc(C(=O)O)cc4)C(=O)O)cc3)cnc2n1` (centres undefined), with 55 nM.
Turning to `Nc1nc(N)c2nc(CCc3ccc(C(=O)NC(CCCNC(=O)c4ccccc4C(=O)O)C(=O)O)cc3)cnc2n1` (centres undefined), the IC50 was 0.53 nM.
Consider `CC(Cc1cnc2nc(N)nc(N)c2n1)c1ccc(C(=O)NC(CCCNC(=O)c2ccccc2C(=O)O)C(=O)O)cc1` (centres undefined), for which the IC50 came to 0.63 nM.
Regarding `Nc1nc(N)c2nc(CNc3ccc(C(=O)NC(CNC(=O)c4ccccc4C(=O)O)C(=O)O)cc3)cnc2n1` (centres undefined), half-maximal inhibition (IC50) was put at 5.1 nM.
For the molecule `Nc1nc(N)c2nc(CNc3ccc(C(=O)N[C@@H](CCC(=O)O)C(=O)O)cc3)cnc2n1` [AMINOPTERIN], the IC50 is 4.4 nM.
Then `Nc1nc(N)c2nc(CNc3ccc(C(=O)NC(CCNC(=O)c4ccccc4C(=O)O)C(=O)O)cc3)cnc2n1` (centres undefined), with 5.5 nM; and `Nc1nc(N)c2nc(CNc3ccc(C(=O)NC(CCCNC(=O)c4ccccc4C(=O)O)C(=O)O)c4ccccc34)cnc2n1` (centres undefined), with 1.2 nM; and `Nc1nc(N)c2nc(CNc3ccc(C(=O)NC(CCCCNC(=O)c4ccccc4C(=O)O)C(=O)O)cc3)cnc2n1` (centres undefined), with 2.9 nM.

(Values after ChEMBL document CHEMBL1132921, “Analogues of the potent nonpolyglutamatable antifolate N(alpha)-(4-amino-4-deoxypteroyl)-N(delta)-hemiphthaloyl-L-ornithine (PT523) with modifications in the side chain, p-aminobenzoyl moiety, or 9,10-bridge: synthesis and in vitro antitumor activity” (J Med Chem, 2000).)
